Data reported in ChEMBL document CHEMBL3045966, “Synthesis and Selective Bioactivity of New Pyrazolecarboxamide Derivatives” (J Pestic Sci, 1999).

Tests used:
[1] = Toxicity against Oryzias latipes (Japanese medaka) assessed as fish mortality at 0.05 ppm measured after 3 days; format: organism-based; conditions: in vivo
Tetranychus urticae [2] = assay: Acaricidal activity against Tetranychus urticae (two-spotted spider mite) reared on kidney bean leaves followed by compound exposure through leaf dipping assessed as mite mortality at 30 ppm measured after 3 days; format: functional; conditions: foliar, 72 h
Tetranychus urticae [3] = assay: Acaricidal activity against Tetranychus urticae (two-spotted spider mite) reared on kidney bean leaves followed by compound exposure through leaf dipping assessed as mite mortality at 300 ppm measured after 3 days; format: functional; conditions: foliar, 72 h
[4] = Toxicity against Oryzias latipes (Japanese medaka) assessed as fish mortality at 0.5 ppm measured after 3 days; format: organism-based; conditions: in vivo
Tetranychus urticae [5] = assay: Acaricidal activity against Tetranychus urticae (two-spotted spider mite) reared on kidney bean leaves followed by compound exposure through leaf dipping assessed as mite mortality at 3 ppm measured after 3 days; format: functional; conditions: foliar, 72 h
Tetranychus urticae [6] = assay: Acaricidal activity against Tetranychus urticae (two-spotted spider mite) reared on kidney bean leaves followed by compound exposure through leaf dipping assessed as mite mortality at 10 ppm measured after 3 days; format: functional; conditions: foliar, 72 h

| SMILES | mortality at 72 h, 0.05 ppm [1] | mortality at 30 ppm (Tetranychus urticae [2]) | mortality at 300 ppm (Tetranychus urticae [3]) | mortality at 72 h, 0.5 ppm [4] | mortality at 3 ppm (Tetranychus urticae [5]) | mortality at 10 ppm (Tetranychus urticae [6]) |
| --- | --- | --- | --- | --- | --- | --- |
| CCOCCc1ccc(OCCN(C(C)=O)C(=O)c2cc(C3CC3)nn2C)c(C)c1 | 0% | 0% | 100% | 51% |  |  |
| CCOCCc1ccc(OCCN(C(C)=O)C(=O)c2cc(C(C)(C)C)nn2C)c(C)c1 | 0% | 100% | 100% | 1% | 0% | 80% |
| CCOCCc1ccc(OCCN(C(=O)CC)C(=O)c2cc(C(C)(C)C)nn2C)c(C)c1 | 0% | 100% | 100% | 1% | 0% | 0% |
| CCOCCc1ccc(OCCN(C(=O)c2cc(C(C)(C)C)nn2C)C(=O)C(C)C)c(C)c1 | 0% | 100% | 100% | 0% | 0% | 100% |
| CCOCCc1ccc(OCCN(C(=O)c2cc(C(C)(C)C)nn2C)C(=O)C2CC2)c(C)c1 | 0% | 100% | 100% | 0% | 0% | 30% |
| CCOCCc1ccc(OCCN(C(=O)c2ccccc2)C(=O)c2cc(C(C)(C)C)nn2C)c(C)c1 | 0% | 100% | 100% | 0% | 0% | 0% |
| CCOCCc1ccc(OCCNC(=O)c2cc(CC)nn2C)c(C)c1 | 51% | 30% | 100% | 100% | 0% | 0% |
| CCCc1cc(C(=O)NCCOc2ccc(CCOCC)cc2C)n(C)n1 | 1% | 0% | 0% | 100% | 0% | 0% |
| CCOCCc1ccc(OCCNC(=O)c2cc(C(C)(C)C)nn2C)c(C)c1 | 1% | 30% | 100% | 100% | 0% | 0% |
| CCOCCc1ccc(OCCNC(=O)c2c(Cl)c(C)nn2C)c(C)c1 | 100% | 100% | 100% | 100% | 0% | 100% |
| CCOCCc1ccc(OCCNC(=O)c2c(Cl)c(CC)nn2C)c(C)c1 | 100% | 100% | 100% | 100% | 0% | 100% |
| CCOCCc1ccc(OCCNC(=O)c2c(Cl)c(C(C)(C)C)nn2C)c(C)c1 | 0% | 30% | 30% | 0% | 0% | 30% |
| CCOCCc1ccc(OCCN(C(C)=O)C(=O)c2c(Cl)cnn2C)c(C)c1 | 0% | 0% | 0% | 0% |  |  |
| CCOCCc1ccc(OCCN(C(C)=O)C(=O)c2c(Cl)c(C)nn2C)c(C)c1 | 1% | 100% | 100% | 100% | 30% | 80% |
| CCOCCc1ccc(OCCN(C(C)=O)C(=O)c2c(Cl)c(CC)nn2C)c(C)c1 | 51% | 100% | 100% | 100% | 0% | 30% |
| CCCc1nn(C)c(C(=O)N(CCOc2ccc(CCOCC)cc2C)C(C)=O)c1Cl | 0% | 0% | 0% | 100% |  |  |
| CCOCCc1ccc(OCCN(C(C)=O)C(=O)c2c(Cl)c(C(C)(C)C)nn2C)c(C)c1 | 0% | 0% | 80% | 0% |  |  |
| CCOCCc1ccc(OCCN(C(=O)CC)C(=O)c2c(Cl)c(C)nn2C)c(C)c1 | 0% | 100% | 100% | 100% | 0% | 100% |
| CCCC(=O)N(CCOc1ccc(CCOCC)cc1C)C(=O)c1c(Cl)c(C)cn1C | 0% | 100% | 100% | 100% | 0% | 30% |
| CCCCCC(=O)N(CCOc1ccc(CCOCC)cc1C)C(=O)c1c(Cl)c(C)nn1C | 1% | 100% | 100% | 100% | 30% | 80% |
| CCCCCCCCCCC(=O)N(CCOc1ccc(CCOCC)cc1C)C(=O)c1c(Cl)c(C)nn1C | 0% | 100% | 100% | 51% | 0% | 0% |
| CCOCCc1ccc(OCCN(C(C)=O)C(=O)c2cc(C)nn2C)c(C)c1 | 0% | 100% | 100% | 1% | 0% | 0% |
| CCOCCc1ccc(OCCN(C(C)=O)C(=O)c2cc(CC)nn2C)c(C)c1 | 0% | 100% | 100% | 100% | 0% | 0% |
| CCCc1cc(C(=O)N(CCOc2ccc(CCOCC)cc2C)C(C)=O)n(C)n1 | 0% | 30% | 100% | 51% | 0% | 0% |
| CCOCCc1ccc(OCCN(C(C)=O)C(=O)c2cc(C(C)C)nn2C)c(C)c1 | 0% | 100% | 100% | 100% | 0% | 30% |
| CCOCCc1ccc(OCCNC(=O)c2cc(C)nn2C)c(C)c1 | 0% | 0% | 30% | 0% | 0% | 0% |
